Reference: ChEMBL document CHEMBL3885881, “DrugMatrix”

Organism: Rattus norvegicus
Test: DrugMatrix - Regimen: Daily Repeat
Type: toxicity, organism-based, Sprague-Dawley
Design: regimen Daily Repeat, gender Male, age 6-8 weeks
Settings: in vivo, po, route oral GAVAGE, vehicle 100 % WATER; for ABSOLUTE BASOPHIL / ABSOLUTE EOSINOPHIL / ABSOLUTE LYMPHOCYTE / ABSOLUTE MONOCYTE / ABSOLUTE SEGMENTED NEUTROPHIL / BASOPHIL / EOSINOPHIL / ERYTHROCYTE COUNT / HEMATOCRIT / HEMOGLOBIN / LEUKOCYTE COUNT / LYMPHOCYTE / MEAN CORPUSCULAR HEMOGLOBIN / MEAN CORPUSCULAR HEMOGLOBIN CONCENTRATION / MEAN CORPUSCULAR VOLUME / MONOCYTE / NEUTROPHIL / NUCLEATED RED BLOOD CELLS / PLATELET COUNT: tissue Blood; for ALANINE AMINOTRANSFERASE / ALBUMIN / ALKALINE PHOSPHATASE / ASPARTATE AMINOTRANSFERASE / BLOOD UREA NITROGEN / CARBON DIOXIDE / CHLORIDE / CHOLESTEROL / CREATINE PHOSPHOKINASE / CREATININE / GLUCOSE / LACTATE DEHYDROGENASE / LIPASE / PHOSPHORUS / POTASSIUM / SODIUM / TOTAL BILIRUBIN / TOTAL PROTEIN / URIC ACID: tissue Plasma
[1] = 1 mg/kg, 120 h, dose level Low, time 5 day
[2] = 10 mg/kg, 72 h, dose level High, time 3 day
[3] = 10 mg/kg, 120 h, dose level High, time 5 day

Question: What does the source list for `CC[C@H](C)[C@H]1O[C@]2(C=C[C@@H]1C)C[C@@H]1C[C@@H](C/C=C(\C)[C@@H](O[C@H]3C[C@H](OC)[C@@H](O[C@H]4C[C@H](OC)[C@@H](O)[C@H](C)O4)[C@H](C)O3)[C@@H](C)/C=C/C=C3\CO[C@@H]4[C@H](O)C(C)=C[C@@H](C(=O)O1)[C@]34O)O2.CO[C@H]1C[C@H](O[C@H]2[C@H](C)O[C@@H](O[C@@H]3/C(C)=C/C[C@@H]4C[C@@H](C[C@]5(C=C[C@H](C)[C@@H](C(C)C)O5)O4)OC(=O)[C@@H]4C=C(C)[C@@H](O)[C@H]5OC/C(=C\C=C\[C@@H]3C)[C@]54O)C[C@@H]2OC)O[C@@H](C)[C@@H]1O` [ABAMECTIN]?
Answer: ABSOLUTE BASOPHIL [1]: 0 CELLS/uL; ABSOLUTE EOSINOPHIL [1]: 144.67 CELLS/uL; ABSOLUTE LYMPHOCYTE [1]: 15431.33 CELLS/uL; ABSOLUTE MONOCYTE [1]: 370 CELLS/uL; ABSOLUTE SEGMENTED NEUTROPHIL [1]: 1387.33 CELLS/uL; BASOPHIL [1]: 0%; EOSINOPHIL [1]: 0.67%; ERYTHROCYTE COUNT [1]: 5.65 x10E6/uL; HEMATOCRIT [1]: 33.97%; HEMOGLOBIN [1]: 13.77 G/DL; LEUKOCYTE COUNT [1]: 17.33 x10E3/uL; LYMPHOCYTE [1]: 89.67%; MEAN CORPUSCULAR HEMOGLOBIN [1]: 24.4 pg; MEAN CORPUSCULAR HEMOGLOBIN CONCENTRATION [1]: 40.53 G/DL; MEAN CORPUSCULAR VOLUME [1]: 60.13 fL; MONOCYTE [1]: 2%; NEUTROPHIL [1]: 7.67%; NUCLEATED RED BLOOD CELLS [1]: 0 /100WBC; PLATELET COUNT [1]: 1317.33 x10E3/uL; ALANINE AMINOTRANSFERASE [1]: 48.67 u/L; ALBUMIN [1]: 4.2 G/DL; ALKALINE PHOSPHATASE [1]: 323.67 u/L; ASPARTATE AMINOTRANSFERASE [1]: 72 u/L; BLOOD UREA NITROGEN [1]: 14.67 mg/dL; CARBON DIOXIDE [1]: 25 mmol/L; CHLORIDE [1]: 102 MEQ/L; CHOLESTEROL [1]: 70.33 mg/dL; CREATINE PHOSPHOKINASE [1]: 216.33 u/L; CREATININE [1]: 0.13 mg/dL; GLUCOSE [1]: 162.33 mg/dL; LACTATE DEHYDROGENASE [1]: 87.67 u/L; LIPASE [1]: 9 u/L; PHOSPHORUS [1]: 11.33 mg/dL; POTASSIUM [1]: 6.2 MEQ/L; SODIUM [1]: 144.03 MEQ/L; TOTAL BILIRUBIN [1]: 0.17 mg/dL; TOTAL PROTEIN [1]: 5.87 G/DL; URIC ACID [1]: 1.5 mg/dL; ABSOLUTE BASOPHIL [2]: 0 CELLS/uL; ABSOLUTE EOSINOPHIL [2]: 36.33 CELLS/uL; ABSOLUTE LYMPHOCYTE [2]: 12016 CELLS/uL; ABSOLUTE MONOCYTE [2]: 120 CELLS/uL; ABSOLUTE SEGMENTED NEUTROPHIL [2]: 861 CELLS/uL; BASOPHIL [2]: 0%; EOSINOPHIL [2]: 0.33%; ERYTHROCYTE COUNT [2]: 5.75 x10E6/uL; HEMATOCRIT [2]: 35.6%; HEMOGLOBIN [2]: 13.9 G/DL; LEUKOCYTE COUNT [2]: 13.03 x10E3/uL; LYMPHOCYTE [2]: 92.33%; MEAN CORPUSCULAR HEMOGLOBIN [2]: 24.2 pg; MEAN CORPUSCULAR HEMOGLOBIN CONCENTRATION [2]: 39.07 G/DL; MEAN CORPUSCULAR VOLUME [2]: 61.93 fL; MONOCYTE [2]: 1%; NEUTROPHIL [2]: 6.33%; NUCLEATED RED BLOOD CELLS [2]: 0 /100WBC; PLATELET COUNT [2]: 1234 x10E3/uL; ALANINE AMINOTRANSFERASE [2]: 46.33 u/L; ALBUMIN [2]: 4.23 G/DL; ALKALINE PHOSPHATASE [2]: 426 u/L; ASPARTATE AMINOTRANSFERASE [2]: 78.33 u/L; BLOOD UREA NITROGEN [2]: 14.67 mg/dL; CARBON DIOXIDE [2]: 25 mmol/L; CHLORIDE [2]: 99.67 MEQ/L; CHOLESTEROL [2]: 64 mg/dL; CREATINE PHOSPHOKINASE [2]: 208.33 u/L; CREATININE [2]: 0.18 mg/dL; GLUCOSE [2]: 136.33 mg/dL; LACTATE DEHYDROGENASE [2]: 150.33 u/L; LIPASE [2]: 11 u/L; PHOSPHORUS [2]: 11.37 mg/dL; POTASSIUM [2]: 6.65 MEQ/L; SODIUM [2]: 143.17 MEQ/L; TOTAL BILIRUBIN [2]: 0.17 mg/dL; TOTAL PROTEIN [2]: 5.87 G/DL; URIC ACID [2]: 1.33 mg/dL; ABSOLUTE BASOPHIL [3]: 0 CELLS/uL; ABSOLUTE EOSINOPHIL [3]: 0 CELLS/uL; ABSOLUTE LYMPHOCYTE [3]: 9787 CELLS/uL; ABSOLUTE MONOCYTE [3]: 273.67 CELLS/uL; ABSOLUTE SEGMENTED NEUTROPHIL [3]: 1239.33 CELLS/uL; BASOPHIL [3]: 0%; EOSINOPHIL [3]: 0%; ERYTHROCYTE COUNT [3]: 6.35 x10E6/uL; HEMATOCRIT [3]: 39.13%; HEMOGLOBIN [3]: 15.47 G/DL; LEUKOCYTE COUNT [3]: 11.3 x10E3/uL; LYMPHOCYTE [3]: 85.33%; MEAN CORPUSCULAR HEMOGLOBIN [3]: 24.43 pg; MEAN CORPUSCULAR HEMOGLOBIN CONCENTRATION [3]: 39.53 G/DL; MEAN CORPUSCULAR VOLUME [3]: 61.9 fL; MONOCYTE [3]: 2.67%; NEUTROPHIL [3]: 12%; NUCLEATED RED BLOOD CELLS [3]: 0.33 /100WBC; PLATELET COUNT [3]: 1492.67 x10E3/uL; ALANINE AMINOTRANSFERASE [3]: 38 u/L; ALBUMIN [3]: 4.63 G/DL; ALKALINE PHOSPHATASE [3]: 309 u/L; ASPARTATE AMINOTRANSFERASE [3]: 72.33 u/L; BLOOD UREA NITROGEN [3]: 17 mg/dL; CARBON DIOXIDE [3]: 27.33 mmol/L; CHLORIDE [3]: 98.67 MEQ/L; CHOLESTEROL [3]: 79.33 mg/dL; CREATINE PHOSPHOKINASE [3]: 356.67 u/L; CREATININE [3]: 0.14 mg/dL; GLUCOSE [3]: 153.33 mg/dL; LACTATE DEHYDROGENASE [3]: 446.33 u/L; LIPASE [3]: 8.67 u/L; PHOSPHORUS [3]: 10.47 mg/dL; POTASSIUM [3]: 6.1 MEQ/L; SODIUM [3]: 143.9 MEQ/L; TOTAL BILIRUBIN [3]: 0.13 mg/dL; TOTAL PROTEIN [3]: 6.7 G/DL; URIC ACID [3]: 1.5 mg/dL
